Article PMC3667675 (ChemMedChem, 2011)
Square brackets hold non-standard residues; d marks the D form. Peptide text beside a SMILES is read from it.

What was measured:
C57Bl/6J mice = type: in vivo
KOR [1] = assay: Ligand-stimulated [35S]GTPγS binding assay, KOR expressing CHO cell membranes; type: biochemical; conditions: ratio of KB values
DOR = assay: Radioligand binding assay, cloned DOR in CHO cell membranes, [3H]DPDPE; conditions: read-out: Ki (nM ± SEM) DOR, mean ± SEM
MOR [2] = molecular target: MOR (Rattus norvegicus, UniProt P33535); assay: biochemical
MOR [3] = type: binding; conditions: read-out: Ki (nM ± SEM) MOR; CHO membranes, [3H]DAMGO, mean ± SEM
KOR [4] = assay: Radioligand binding assay, cloned KOR in CHO cell membranes, [3H]diprenorphine; conditions: read-out: Ki (nM ± SEM) KOR, mean ± SEM
opioid receptors = type: in vivo, C57Bl/6J mice
KOR [5] = molecular target: KOR (Mus musculus, UniProt P33534); type: in vivo, C57Bl/6J mice; conditions: U50,488 10 mg/kg i.p.; 3 h pretreatment
KOR (Mus musculus, UniProt P33534), sequence (P33534 whole entry): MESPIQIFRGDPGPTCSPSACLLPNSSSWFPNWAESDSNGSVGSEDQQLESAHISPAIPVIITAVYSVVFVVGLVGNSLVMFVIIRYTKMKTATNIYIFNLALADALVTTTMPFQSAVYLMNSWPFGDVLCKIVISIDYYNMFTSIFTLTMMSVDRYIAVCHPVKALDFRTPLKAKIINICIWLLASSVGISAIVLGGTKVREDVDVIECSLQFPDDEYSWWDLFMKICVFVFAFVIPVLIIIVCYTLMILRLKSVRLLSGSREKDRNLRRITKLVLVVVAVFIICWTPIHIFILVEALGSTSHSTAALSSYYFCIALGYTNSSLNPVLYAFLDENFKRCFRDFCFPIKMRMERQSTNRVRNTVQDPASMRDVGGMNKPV

MOR (Rattus norvegicus, UniProt P33535), sequence (P33535 whole entry): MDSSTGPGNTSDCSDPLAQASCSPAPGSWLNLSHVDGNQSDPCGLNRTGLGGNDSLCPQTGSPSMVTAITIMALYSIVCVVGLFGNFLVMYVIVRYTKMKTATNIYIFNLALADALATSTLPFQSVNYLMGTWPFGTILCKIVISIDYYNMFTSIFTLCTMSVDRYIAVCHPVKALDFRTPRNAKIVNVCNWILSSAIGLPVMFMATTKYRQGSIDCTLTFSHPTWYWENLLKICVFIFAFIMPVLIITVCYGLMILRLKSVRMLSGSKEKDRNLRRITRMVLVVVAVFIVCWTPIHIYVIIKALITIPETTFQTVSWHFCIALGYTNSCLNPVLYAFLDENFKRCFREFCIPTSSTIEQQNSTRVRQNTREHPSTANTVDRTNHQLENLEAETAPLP

## C[C@@H]1NC(=O)[C@H](Cc2c[nH]c3ccccc23)NC(=O)[C@H](Cc2ccccc2)NC(=O)[C@H]2CCCN2C1=O [Peptide 2, cyclo[Ala-DPro-Phe-Trp]] (cyclo(A[dP]FW))
C57Bl/6J mice; after i.c.v. administration
  Time of peak antinociceptive response: 30 min
C57Bl/6J mice; i.c.v., at peak response, C57Bl/6J mice
  ED50 (and 95% confidence interval), antinociception: 1.49 (0.39-7.41) nmol
KOR [1]
  KOR antagonist potency relative to parent peptide 1 (more potent): 25 fold
DOR
  Ki: 8680 ± 1270 nM
MOR [2]
  Kb: 7.3 ± 1.6 nM
MOR [3]
  Ki: 32.1 ± 3.9 nM
KOR [4]
  Ki: 8.03 ± 1.67 nM
Opioid receptors; naloxone 15 nmol i.c.v., 25 min prior, peptides 2 (3 nmol), 3 (10 nmol), 4 (0.3 nmol), 5 (30 nmol) i.c.v.
  Effect of naloxone pretreatment on peptide antinociception: significantly antagonized
Opioid receptors; nor-BNI 10 mg/kg i.p., did not reach statistical significance
  Reduction of antinociceptive activity by nor-BNI pretreatment: > 30%
KOR [5]
  KOR antagonist potency in vivo compared with parent peptide 1: somewhat more potent
